Reference: patent US8114843B2, “Photoreactive regulator of protein function and methods of use thereof” (The Regents of the University of California, priority 2005, dated 2012)

Tests used:
Assay in all cases: PAL photoswitching, whole-cell patch clamp in HEK cells
Format in all cases: cell-based
BKα channels = molecular target: T1, BKα channels (Homo sapiens, UniProt Q12791); details: n=6
T1 construct: expressed in transfected cells; host or cells: HEK cells
Procedure: (§1) Cell culture and transfection. HEK293 cells were grown in DMEM containing 5% fetal bovine serum, at 37° C., 7% CO2. For electrophysiology, cells were plated at 12×10^5 cells/cm^2 on poly-L-lysine coated coverslips and transfected using the calcium phosphate method. Recordings were performed 24-36 hours after transfection.
(§2) PAL attachment. HEK293 and hippocampal cells were rinsed in extracellular solution containing in mM: 138 NaCl, 1.5 KCl, 1.2 MgCl2, 2.5 CaCl2, 5 HEPES, 10 glucose and incubated at 37° C. in the dark with 200-250 μM PAL for 15 minutes. For slices, AAQ was diluted to 200 μM in aCSF and treatment was performed in the dark at room temperature for 10 minutes.
(§3) Electrophysiological recording. Recordings from HEK293 and hippocampal neurons were made in the whole-cell patch clamp configuration using a PC-501A amplifier (Warner Instruments). Pulse protocols and measurements were carried out with pCLAMP and a Digidata 1322 interface (Axon Instruments). For voltage-clamp experiment, cells were held at −70 mV. Data was recorded at 20 kHz and filtered at 2 kHz. Recording pipettes with 2.5-4 MΩ resistance were filled with intracellular solution containing in mM: 10 NaCl, 135 K-gluconate, 10 HEPES, 2 MgCl2, 2 MgATP, 1 EGTA, pH 7.4.
(§4) Illumination was provided using a xenon lamp (Sutter Instruments) with narrow band pass filters (380 BP10 for UV and 500 BP5 for visible light respectively). Excitation filters were changed using a lambda 10-2 filter changer (Sutter Instruments) controlled via pCLAMP software.
(§5) Percent photoswitching was defined as the difference between current in UV and visible light divided by current in UV. All data shown in bar graphs are averages±standard error of the mean.

Kv1.4 = molecular target: T2, Kv1.4 (Homo sapiens, UniProt P22459); details: n=6
T2 construct: expressed in transfected cells; host or cells: HEK cells
T2 sequence (P22459 whole entry): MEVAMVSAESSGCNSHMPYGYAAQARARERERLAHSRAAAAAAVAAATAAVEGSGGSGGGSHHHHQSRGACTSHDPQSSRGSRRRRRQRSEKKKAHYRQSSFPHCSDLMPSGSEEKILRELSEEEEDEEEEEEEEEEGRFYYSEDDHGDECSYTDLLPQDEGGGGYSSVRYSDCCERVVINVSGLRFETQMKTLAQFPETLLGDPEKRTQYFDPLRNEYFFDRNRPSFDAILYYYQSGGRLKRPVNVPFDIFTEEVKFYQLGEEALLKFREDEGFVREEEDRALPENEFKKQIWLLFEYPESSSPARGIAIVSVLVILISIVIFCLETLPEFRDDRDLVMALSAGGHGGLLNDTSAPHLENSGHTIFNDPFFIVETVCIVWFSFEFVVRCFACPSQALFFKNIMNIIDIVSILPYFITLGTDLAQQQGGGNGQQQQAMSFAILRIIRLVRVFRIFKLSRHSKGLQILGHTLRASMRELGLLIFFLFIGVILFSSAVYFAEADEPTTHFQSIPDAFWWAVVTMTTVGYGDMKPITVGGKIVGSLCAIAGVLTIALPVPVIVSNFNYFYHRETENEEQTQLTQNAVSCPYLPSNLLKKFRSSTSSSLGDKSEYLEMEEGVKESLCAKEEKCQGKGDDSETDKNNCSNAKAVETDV
Procedure: as §1, §2, §3, §4, §5

Kv3.1 = molecular target: T3, Kv3.1 (Homo sapiens, UniProt P48547)
T3 construct: expressed in transfected cells; host or cells: HEK cells
T3 sequence (P48547 1-511): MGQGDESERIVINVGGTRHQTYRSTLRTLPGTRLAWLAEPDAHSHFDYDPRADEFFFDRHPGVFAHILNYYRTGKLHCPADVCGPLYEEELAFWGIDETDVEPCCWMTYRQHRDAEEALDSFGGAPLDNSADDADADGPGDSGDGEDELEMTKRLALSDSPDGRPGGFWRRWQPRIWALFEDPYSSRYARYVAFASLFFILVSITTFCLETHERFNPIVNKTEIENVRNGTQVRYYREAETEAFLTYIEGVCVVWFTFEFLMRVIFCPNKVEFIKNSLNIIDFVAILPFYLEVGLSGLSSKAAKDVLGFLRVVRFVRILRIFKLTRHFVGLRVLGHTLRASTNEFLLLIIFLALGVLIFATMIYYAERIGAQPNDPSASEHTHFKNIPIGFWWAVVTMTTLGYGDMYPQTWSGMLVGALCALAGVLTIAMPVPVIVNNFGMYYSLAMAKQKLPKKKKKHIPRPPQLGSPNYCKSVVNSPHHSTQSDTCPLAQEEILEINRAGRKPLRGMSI
Procedure: as §1, §2, §3, §4, §5

Kv3.3 = molecular target: T4, Kv3.3 (Homo sapiens, UniProt Q14003)
T4 construct: expressed in transfected cells; host or cells: HEK cells
T4 sequence (Q14003 1-757): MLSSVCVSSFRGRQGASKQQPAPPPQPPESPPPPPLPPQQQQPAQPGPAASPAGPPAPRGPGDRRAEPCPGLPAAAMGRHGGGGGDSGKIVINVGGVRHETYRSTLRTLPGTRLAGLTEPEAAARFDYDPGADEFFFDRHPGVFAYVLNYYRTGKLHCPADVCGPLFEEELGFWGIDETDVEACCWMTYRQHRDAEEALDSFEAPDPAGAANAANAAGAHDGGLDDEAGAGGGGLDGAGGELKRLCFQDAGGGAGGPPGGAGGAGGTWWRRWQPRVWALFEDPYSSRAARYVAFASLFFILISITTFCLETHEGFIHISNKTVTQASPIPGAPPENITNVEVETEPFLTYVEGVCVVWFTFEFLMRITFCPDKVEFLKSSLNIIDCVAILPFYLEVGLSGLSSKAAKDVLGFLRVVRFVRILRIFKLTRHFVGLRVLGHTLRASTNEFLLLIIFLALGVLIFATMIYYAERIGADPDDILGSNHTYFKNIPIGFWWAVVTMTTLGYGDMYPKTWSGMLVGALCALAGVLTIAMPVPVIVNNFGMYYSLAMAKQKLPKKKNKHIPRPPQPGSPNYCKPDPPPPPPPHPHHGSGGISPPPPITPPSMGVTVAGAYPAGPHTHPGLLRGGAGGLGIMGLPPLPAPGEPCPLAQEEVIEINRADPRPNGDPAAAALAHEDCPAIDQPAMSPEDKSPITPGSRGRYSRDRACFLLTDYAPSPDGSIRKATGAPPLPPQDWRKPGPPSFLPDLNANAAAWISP
Procedure: as §1, §2, §3, §4, §5

Kv4.2 = molecular target: T5, Kv4.2 (Homo sapiens, UniProt Q9NZV8); details: n=6
T5 construct: expressed in transfected cells; host or cells: HEK cells
T5 sequence (Q9NZV8 1-630): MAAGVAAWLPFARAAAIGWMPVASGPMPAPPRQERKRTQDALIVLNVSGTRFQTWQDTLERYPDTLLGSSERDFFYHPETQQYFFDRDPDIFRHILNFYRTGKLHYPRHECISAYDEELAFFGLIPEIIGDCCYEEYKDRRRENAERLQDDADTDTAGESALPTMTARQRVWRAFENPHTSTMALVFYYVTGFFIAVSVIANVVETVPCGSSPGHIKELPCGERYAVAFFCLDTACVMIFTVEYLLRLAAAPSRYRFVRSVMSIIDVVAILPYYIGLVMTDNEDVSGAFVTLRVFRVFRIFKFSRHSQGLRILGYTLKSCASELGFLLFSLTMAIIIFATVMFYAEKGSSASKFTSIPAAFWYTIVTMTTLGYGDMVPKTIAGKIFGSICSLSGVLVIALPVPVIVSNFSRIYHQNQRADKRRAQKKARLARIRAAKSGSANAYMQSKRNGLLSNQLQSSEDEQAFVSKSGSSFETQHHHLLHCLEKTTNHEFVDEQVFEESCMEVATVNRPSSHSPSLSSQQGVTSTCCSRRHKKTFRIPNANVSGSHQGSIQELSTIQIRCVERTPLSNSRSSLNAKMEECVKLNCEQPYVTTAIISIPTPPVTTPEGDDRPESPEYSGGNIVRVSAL
Procedure: as §1, §2, §3, §4, §5

T1 sequence (Q12791 whole entry): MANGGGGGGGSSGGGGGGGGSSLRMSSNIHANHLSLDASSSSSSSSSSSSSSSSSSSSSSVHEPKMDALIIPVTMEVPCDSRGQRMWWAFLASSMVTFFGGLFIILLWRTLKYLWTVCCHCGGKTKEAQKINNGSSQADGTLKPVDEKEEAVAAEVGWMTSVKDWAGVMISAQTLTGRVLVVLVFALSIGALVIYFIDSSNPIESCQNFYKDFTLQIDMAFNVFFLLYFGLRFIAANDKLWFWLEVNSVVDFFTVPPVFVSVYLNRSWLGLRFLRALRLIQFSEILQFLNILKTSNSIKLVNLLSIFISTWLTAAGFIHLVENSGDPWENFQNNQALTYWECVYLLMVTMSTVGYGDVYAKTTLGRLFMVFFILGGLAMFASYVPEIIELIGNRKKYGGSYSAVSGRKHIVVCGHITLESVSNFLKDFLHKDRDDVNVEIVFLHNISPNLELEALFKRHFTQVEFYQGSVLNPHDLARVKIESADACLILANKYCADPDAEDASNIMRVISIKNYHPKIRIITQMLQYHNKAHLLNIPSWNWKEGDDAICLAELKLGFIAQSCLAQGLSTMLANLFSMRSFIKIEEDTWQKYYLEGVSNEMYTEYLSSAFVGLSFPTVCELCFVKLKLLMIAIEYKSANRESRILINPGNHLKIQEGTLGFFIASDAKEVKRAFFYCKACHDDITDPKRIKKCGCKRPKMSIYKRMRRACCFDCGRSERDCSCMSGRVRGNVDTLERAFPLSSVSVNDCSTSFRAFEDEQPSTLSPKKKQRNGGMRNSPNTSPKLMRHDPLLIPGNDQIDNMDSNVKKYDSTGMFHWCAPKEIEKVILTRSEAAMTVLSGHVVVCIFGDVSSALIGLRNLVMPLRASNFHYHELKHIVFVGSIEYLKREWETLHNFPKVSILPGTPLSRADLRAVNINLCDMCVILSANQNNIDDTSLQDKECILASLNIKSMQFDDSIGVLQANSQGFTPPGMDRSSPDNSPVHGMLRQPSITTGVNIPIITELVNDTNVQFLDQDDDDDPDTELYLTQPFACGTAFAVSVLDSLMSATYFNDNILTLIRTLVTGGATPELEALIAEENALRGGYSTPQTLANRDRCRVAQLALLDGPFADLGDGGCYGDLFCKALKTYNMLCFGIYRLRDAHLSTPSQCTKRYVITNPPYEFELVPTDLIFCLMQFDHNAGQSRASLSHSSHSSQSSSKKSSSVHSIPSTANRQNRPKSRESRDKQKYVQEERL

## C=CC(=O)Nc1ccc(/N=N/c2ccc(NC(=O)C[N+](CC)(CC)CC)cc2)cc1 [AAQ]
BKα channels
  current regulated by light: ~45%
Kv1.4
  current turned on and off by light: ~80%
Kv3.1
  light-sensitivity imparted on channel: imparted light-sensitivity
Kv3.3
  light-sensitivity imparted on channel: imparted light-sensitivity
Kv4.2
  current turned on and off by light: ~80%
